Type in all cases: cell-based
One assay concerns SMN2^Δ7 mRNA. Briefly: SMN2 splicing assay, real-time quantitative PCR, SMA type I patient cells (GM03813). The conditions noted are these: Homo sapiens, 24 hours. The method, then: (§1) Various cells lines were treated with the SMSMs described herein. RNA was then isolated, cDNA synthesized, qPCR performed and the levels of various mRNA targets of the SMSMs were determined. In some instances, RNA was isolated, cDNA synthesized, qPCR performed and the levels of mRNA isoforms in the various cell samples were determined.
(§2) SMA type I patient cells (GM03813 (Coriell))
(§3) On the day of the experiment, a 96-well plate was seeded with the cell lines of interest. The cells were diluted with full growth media to a concentration of 2.0×10^5 cells/mL and 100 μL of cells were added to each well (20,000 cells per well). The cells were treated with a compound immediately after plating.
(§4) The compounds were then added to the cell plate using the HP compound dispenser. In the initial experiment, a top concentration of 10 μM and an 8 point 4-fold dilution scheme was used. The stock compounds were made at a concentration of 5 mM, and the DMSO concentration was set to 0.2%. DMSO was used to normalize all the compound-containing wells and the untreated cells.
(§5) The treated cells were incubated at 37° C. in a 5% CO2 incubator for the desired amount of time. Plates were placed in a plastic bag with a wet paper towel to prevent evaporation.
(§6) RNA was isolated using the Cells to CT kit (ThermoFisher, AM1728). The cells were washed once with 100 μL cold PBS. 50 μL of lysis buffer was added to each well/tube (49.5 μL lysis buffer+0.5 μL DNase I per well/tube). The lysis reaction was mixed and incubated at room temperature for 5 minutes. 5 μL of stop solution was added directly into each cell lysis reaction and mixed by pipetting up and down 5 times. The plates/tubes were incubated at room temperature for 2 minutes then placed on ice if the cDNA synthesis was to be performed immediately. Otherwise, the plates/tubes were stored at −80° C.
(§7) cDNA synthesis reactions were then performed. 40 μL RT master mix was added to PCR tubes or plate wells. 10 μL of RNA was added to each tube/well. The RT thermal cycler program was then run and tubes or plate wells were incubated at 37° C. for 1 hour, then at 95° C. for 5 minutes to deactivate the enzyme.
(§8) The qPCR was performed using a QuantStudio 6instrument (ThermoFisher) and the following cycling conditions and according to the tables below. All samples and standards were analyzed in triplicate. Cycle 1: 2 minutes at 50° C. Cycle 2: 10 minutes at 95′C. Cycle 3 (repeat 40 times): 15 seconds at 95° C., 1 minute at 60° C.
(§9) The determined SMN2^Δ7 and SMN2^FL quantities were then be used to determine the SMN2^Δ7:SMN2^FL ratio at the various compound concentrations. The PPIA quantities were used in the normalization to account of cell proliferation effects of the compounds.
(§10) An assay to measure the SMN2^FL mRNA and SMN2^Δ7 mRNA simultaneously in cell wells was performed. The RNA values were measured relative to DMSO control and also included a housekeeping gene, PPIA to ensure data was consistent. The mRNA values were measured after 24 hours of incubation with the SMSM compounds.
(§11) Additionally, to monitor expression levels of SMN2 splice variant using real-time quantitative PCR, SMA type I patient cells (GM03813 (Coriell)) were plated at 5,000 cells/well in 200 μl Dulbecco's modified Eagle's medium (DMEM) with GlutaMAX and 10% fetal bovine serum (FBS) (Life Technologies, Inc.) in 96-well plates, and incubated for 6 hours in a cell culture incubator. Cells were then treated with SMSMs at different concentrations (0.5% DMSO) in duplicate for 24 hours. After removal of the supernatant, cells were lysed in Cells-To-Ct lysis buffer (Life Technologies, Inc.) according to the manufacturer's recommendations. The mRNA levels of SMN2 FL, SMN2 A7 were quantified using Taqman-based RT-qPCR and SMN2-specific primers and probes. The SMN2 forward and reverse primers were each used at a final concentration of 0.4 μM. The SMN2 probe was used at a final concentration of 0.1 μM. […]

The subject of another assay is SMN2^FL mRNA. The assay is described as above. The conditions noted are these: Homo sapiens, 24 hours. The method, then:
as §1, §2, §3, §4, §5, §6, §7, §8, §9, §10, §11

A short description of assay [1]: Splicing (IC50), Example 22. The conditions noted are these: spliced gene and cells not stated. How it is done:
A-673 cell viability […], splicing (IC50) and brain AUC/Plasma AUC of SMSMs were determined. As shown in the tables below SMSMs had high CNS exposure.

Structures are written as SMILES. Bounds are passed on as bounds.

In general, IC50 refers to the point on the concentration scale where inhibition reaches its midpoint. A high value points to weaker potency. What is called EC50 is the concentration at which the effect is half-maximal. A higher EC50 goes with lower potency in that assay.

`CN(c1ccc(-c2ccc(-c3cn[nH]c3)cc2O)nn1)[C@@H]1C[C@H]2CC[C@@H](C1)N2` [compound 138, 2-(6-(((1R,3s,5S)-8-azabicyclo[3.2.1]octan-3-yl)(methyl)amino)pyridazin-3-yl)-5-(1H-pyrazol-4-yl)phenol]: half-maximal inhibition with SMN2^Δ7 mRNA (IC50) required 1 nM. The compound further yielded an EC50 in the assay with SMN2^FL mRNA of 1 nM.
As for `CN(c1ccc(-c2ccc(-c3cn[nH]c3)cc2O)nn1)[C@H]1C[C@]2(C)CC[C@](C)(C1)N2` [compound 151, 2-(6-(((1R,3s,5S)-1,5-dimethyl-8-azabicyclo[3.2.1]octan-3-yl)(methyl)amino)pyridazin-3-yl)-5-(1H-pyrazol-4-yl)phenol], the IC50 in the assay on SMN2^Δ7 mRNA is 0.9 nM; in assay [1], under 1 nM. In the assay on SMN2^FL mRNA, this compound showed an EC50 of 0.7 nM.
The matching figures for `CN(c1ccc(-c2ccc(-c3cn[nH]c3)cc2O)nn1)[C@@H]1C[C@H]2CCC[C@@H](C1)N2` [compound 160, 2-(6-(((1R,3s,5S)-9-azabicyclo[3.3.1]nonan-3-yl)(methyl)amino)pyridazin-3-yl)-5-(1H-pyrazol-4-yl)phenol]: 0.7 nM, under 1 nM and 0.6 nM.
